Data on 3 molecules can be found in article PMC7562955 (Nature Communications, 2020).

Values after ≈ are worked out from the molar mass of the structure shown. Some results are limits rather than exact numbers.

For orientation: solubility means the dissolved amount per volume that the medium holds.

Series [1] in a line: Solubility measurement in isotonic buffer. The series is classed as physicochemical. Particulars: isotonic disodium hydrogen phosphate/citric acid buffer, 25 °C, aqueous buffer, kinetic from dmso stock; pH 7.4 buffer. How it is done:
Compound was dissolved in dimethyl sulfoxide at 10 mM. A 1.75% disodium hydrogen phosphate aqueous solution and a 5.53% citric acid aqueous solution were mixed while monitoring with a pH meter to prepare an isotonic buffer solution having a pH of 7.4. The dimethyl sulfoxide solution and the isotonic buffer solution of pH 7.4 was mixed and shaken at 110 rpm for 90 min at 25 °C by a constant temperature incubator shaker. After standing for 16–20 h, the mixture was centrifuged to precipitate insoluble matter, and the supernatant was collected. Separately, standard solutions of the compound were prepared by dissolving the compound in a mixture of acetonitrile and water (1:1). The analytical sample and the standard solutions were measured by UHPLC-UV (Waters, USA). The degree of solubility was calculated by comparing the peak area of the analytical sample with standard solutions.

For a further series, the target named is T1, TLR1/2 (Homo sapiens, UniProt O60603+Q15399).
T1 construct: Human Peripheral Blood Mononuclear cells (hPBMCs) were collected from healthy adult donors; endogenous in cells; host or cells: primary human PBMCs
Briefly: TNF-α production by human PBMC stimulated by TLR1/2 ligand Pam3CSK4 (ELISA). The series is classed as cell-based. Particulars: human PBMCs, 2.5 μM.

A further series deals with T2, TLR7 (Homo sapiens, UniProt Q9NYK1).
T2 sequence (Q9NYK1 27-1049): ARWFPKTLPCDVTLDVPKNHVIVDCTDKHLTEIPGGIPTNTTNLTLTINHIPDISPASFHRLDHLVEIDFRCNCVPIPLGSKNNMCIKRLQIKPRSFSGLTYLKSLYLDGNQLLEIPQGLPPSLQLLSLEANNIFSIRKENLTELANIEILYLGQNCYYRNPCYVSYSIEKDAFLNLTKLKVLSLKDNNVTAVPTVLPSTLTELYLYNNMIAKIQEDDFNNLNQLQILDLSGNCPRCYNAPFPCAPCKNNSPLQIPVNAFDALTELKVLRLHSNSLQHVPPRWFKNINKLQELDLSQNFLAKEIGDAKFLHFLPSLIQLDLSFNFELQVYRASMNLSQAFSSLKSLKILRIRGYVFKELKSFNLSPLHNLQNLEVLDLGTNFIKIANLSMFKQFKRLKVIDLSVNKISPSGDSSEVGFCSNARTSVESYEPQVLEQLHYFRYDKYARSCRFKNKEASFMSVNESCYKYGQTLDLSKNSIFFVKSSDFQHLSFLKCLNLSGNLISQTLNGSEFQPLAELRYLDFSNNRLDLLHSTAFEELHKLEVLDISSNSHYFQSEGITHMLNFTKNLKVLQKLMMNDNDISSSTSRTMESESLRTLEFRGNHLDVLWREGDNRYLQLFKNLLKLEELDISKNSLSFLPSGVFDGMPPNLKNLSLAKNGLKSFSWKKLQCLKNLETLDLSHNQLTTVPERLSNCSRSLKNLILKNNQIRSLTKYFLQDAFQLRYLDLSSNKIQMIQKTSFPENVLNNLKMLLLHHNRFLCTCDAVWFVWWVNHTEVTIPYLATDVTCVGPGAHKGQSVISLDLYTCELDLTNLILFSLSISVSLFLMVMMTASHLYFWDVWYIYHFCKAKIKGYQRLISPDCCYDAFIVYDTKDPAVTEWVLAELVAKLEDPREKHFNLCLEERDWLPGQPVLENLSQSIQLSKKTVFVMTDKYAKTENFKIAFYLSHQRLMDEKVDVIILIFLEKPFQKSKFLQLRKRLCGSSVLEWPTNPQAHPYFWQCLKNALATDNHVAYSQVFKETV
Briefly: TLR7 inhibition assay in primary human PBMCs (R848-induced IFN-α, ELISA). The series is classed as cell-based. The arrangement: Human Peripheral Blood Mononuclear cells (hPBMCs) were collected from healthy adult donors; endogenous in cells; host or cells: primary human PBMCs (plasmacytoid DCs produce the IFN-α). Particulars: for R848-induced IFN-α production: 2.5 μM; for Mean IFN-α / IFN-α: antagonist 2.5 μM; for Mean IFN-α: n = 3; for IFN-α: single replicate. How it is done:
Human Peripheral Blood Mononuclear cells (hPBMCs) were collected from healthy adult donors. hPBMCs were cultured in round-bottom 96-well plates (BD Falcon, Durham, NC, USA) with a density of 5 × 10^5 cells/well. Plated cells were pretreated with DMSO or 2.5 μM inhibitors for 3 h and then stimulated by indicated ligands, such as R848 or TLR1/2 specific ligand Pam3CSK4 (Invivogen, HongKong, China), for 20 h in […] of RPMI 1640 medium (Gibco, Paisley, UK) supplemented with 10% FBS, Penicillin-Streptomycin-Glutamine (Gibco, Paisley, UK), 50 μM 2-ME medium at 37 °C in the presence of 5% CO2. Supernatants were collected to measure secreted cytokines by ELISA. Concentration of human IFN-α and TNF-α in the supernatants was measured with Verikine Human IFN-α Multi-Subtype Serum ELISA Kit (PBL Assay Science, Piscataway, NJ, USA) and Human TNF-α Uncoated ELISA (ThermoFisher Scientific, Carlsbad, CA, USA), respectively. This study was approved by the Research Ethics Committee of IMSUT (accession number: 30-100-B20190419).
(In an ELISA, binding on a coated surface is turned into a signal by an enzyme label.)

T1 sequence (Q15399 25-786): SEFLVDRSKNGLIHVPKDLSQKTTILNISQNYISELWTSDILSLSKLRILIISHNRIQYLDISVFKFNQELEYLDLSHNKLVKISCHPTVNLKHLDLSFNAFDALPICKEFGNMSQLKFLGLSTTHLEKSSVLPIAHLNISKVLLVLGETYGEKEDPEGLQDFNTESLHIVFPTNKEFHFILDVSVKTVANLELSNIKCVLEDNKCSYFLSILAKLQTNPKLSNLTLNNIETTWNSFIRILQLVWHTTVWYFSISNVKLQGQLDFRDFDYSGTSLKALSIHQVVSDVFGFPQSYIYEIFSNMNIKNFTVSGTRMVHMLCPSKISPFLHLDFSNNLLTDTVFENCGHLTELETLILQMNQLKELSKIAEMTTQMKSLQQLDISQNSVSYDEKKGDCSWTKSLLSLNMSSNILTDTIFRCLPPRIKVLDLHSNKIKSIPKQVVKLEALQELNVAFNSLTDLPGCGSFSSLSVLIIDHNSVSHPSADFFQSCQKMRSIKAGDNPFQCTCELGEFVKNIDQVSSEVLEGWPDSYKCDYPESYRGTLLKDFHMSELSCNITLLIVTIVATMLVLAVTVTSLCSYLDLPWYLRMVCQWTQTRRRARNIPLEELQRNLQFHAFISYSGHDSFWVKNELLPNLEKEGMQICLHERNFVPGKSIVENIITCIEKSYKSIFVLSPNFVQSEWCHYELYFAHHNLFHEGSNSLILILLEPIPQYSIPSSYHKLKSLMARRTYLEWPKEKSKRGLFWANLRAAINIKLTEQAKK
T1 sequence (O60603 19-784 limits assumed): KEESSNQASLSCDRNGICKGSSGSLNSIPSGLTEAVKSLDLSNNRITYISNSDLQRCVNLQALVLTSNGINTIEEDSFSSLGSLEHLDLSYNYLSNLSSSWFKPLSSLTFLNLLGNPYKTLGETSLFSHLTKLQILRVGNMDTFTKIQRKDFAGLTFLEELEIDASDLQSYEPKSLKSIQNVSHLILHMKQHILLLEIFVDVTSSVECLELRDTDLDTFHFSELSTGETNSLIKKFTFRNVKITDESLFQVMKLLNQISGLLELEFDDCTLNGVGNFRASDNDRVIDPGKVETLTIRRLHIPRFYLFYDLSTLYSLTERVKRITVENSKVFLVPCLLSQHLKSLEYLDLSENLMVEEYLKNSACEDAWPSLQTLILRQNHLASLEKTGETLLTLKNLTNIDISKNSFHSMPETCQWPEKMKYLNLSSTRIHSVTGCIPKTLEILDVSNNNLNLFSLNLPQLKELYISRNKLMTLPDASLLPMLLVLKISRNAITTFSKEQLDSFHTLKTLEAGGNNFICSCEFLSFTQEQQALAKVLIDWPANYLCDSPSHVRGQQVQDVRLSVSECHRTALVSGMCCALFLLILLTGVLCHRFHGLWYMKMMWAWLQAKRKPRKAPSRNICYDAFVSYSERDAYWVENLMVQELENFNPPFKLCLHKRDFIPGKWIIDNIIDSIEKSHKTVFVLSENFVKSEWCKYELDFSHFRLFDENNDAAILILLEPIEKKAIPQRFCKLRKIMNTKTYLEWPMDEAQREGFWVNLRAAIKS

With `CCCCOc1nc(N)c2nc(-c3cccnc3)n(Cc3ccccc3)c2n1` [Cpd-5], the solubility at 90 min in series [1] was 0.3 µg/mL (≈ 0.801 µM).

Consider `CCOc1nc(N)c2nc(-c3cncc(F)c3)n(Cc3ccc(CN4C[C@@H]5C[C@H]4CN5C)cc3)c2n1` [Cpd-6], for which the cytotoxicity result on TLR1/2 is “not cytotoxic”. Moreover, the solubility at 90 min in series [1] was greater than 150 µg/mL. In addition, on TLR7, the “R848-induced IFN-α production” value is “completely blocked”. Further, the “Mean IFN-α” value at TLR7 (activator None) and on TLR7 (activator R848 (200 nM)) was 0 pg/mL in each case. The IFN-α on TLR7 (activator None) and at TLR7 (activator R848 (200 nM)) was 0 pg/mL throughout.

Consider `CCOc1nc(C)c2nc(-c3cncc(F)c3)n(Cc3ccc(CN4C[C@@H]5C[C@H]4CN5C)cc3)c2n1` [Cpd-7], for which, on TLR1/2, the cytotoxicity entry is “not cytotoxic”. The molecule also showed a solubility at 90 min in series [1] greater than 150 µg/mL. Moreover, the “R848-induced IFN-α production” value on TLR7 was “completely blocked”. In addition, at TLR7 (activator None), the “Mean IFN-α” value was 0 pg/mL and the IFN-α was 0 pg/mL. Also, at TLR7 (activator R848 (200 nM)), the “Mean IFN-α” value is reported as 0 pg/mL and the IFN-α worked out at 0 pg/mL.
